Source: patent US20090306625A1, “TREATMENT SYSTEMS AND METHODS FOR RENAL-RELATED DISEASES” (AngioDynamics, Inc., priority 2007, published 2009)
Counter-ions that a name gives are not always drawn.

How the values were obtained:
septic patients = conditions: IV infusion 0.09 mcg/kg/min, average of one week or more, ICU; cited from earlier work
[1] = tested on: patients with moderate to severe underlying renal dysfunction; test: Targeted renal therapy (intra-renal infusion) with fenoldopam mesylate in patients receiving a nephrotoxic radio-contrast agent; format: in vivo, human; conditions: TRT (intra-renal) delivery
Description: TRT can be applied to patients with various agents in many clinical settings to mitigate acute kidney injury. For example, TRT can be applied with fenoldopam mesylate, a dopamine DI-like agonist vasodilator (CORLOPAM® brand of Fenoldopam Mesylate Injection). […] The increase in GFR can be seen in the setting of an insult to the kidneys in the form of a nephrotoxic radio-contrast agent.

Q: For `Oc1ccc(C2CNCCc3c2cc(O)c(O)c3Cl)cc1` (stereo not drawn) [fenoldopam mesylate], which “outcome in preventing kidney failure” value (septic patients) is on record?
A: The value was “improved outcomes in preventing kidney failure”.

Q: And the “effect on blood pressure” value [1]?
A: Its value is “no significant effect”.

Q: What about the “increase in glomerular filtration rate (GFR) above baseline” value ([1]; nephrotoxic radio-contrast insult) of the same compound?
A: Its value is “approximately 25%”.
